Assay results from patent publication US7420060B2, “Benzopyran derivatives substituted with a thioxobenzoxazole derivative, pharmaceutically acceptable salts thereof, their preparations and pharmaceutical compositions containing them” (Schaeffler KG, priority 2003, dated 2008).

Key:
[1] = test system: ischemic heart isolated from white rat; assay: Cardioprotective effect on isolated ischemic rat heart (Langendorff, 30 min global ischemia / 30 min reperfusion); conditions: 10 μM; for LDH (concentration of lactate dehydogenase): after 30 min reperfusion; for EDP (left ventricular end diastolic pressure): after reperfusion, baseline set at 5 mmHg; for LVDP × HR (left ventricular developed pressure × heart rate): reperfusion DP as % of pre-treatment DP, 30 min after reperfusion
Experimental: 100 mg/kg of sodium pentobarbital was injected in abdominal cavity of white male rats (300˜450 g, obtained form the experimental animal team of the Korea Research Institute of Chemical Technology) to anesthetize them. Then, an intravenous injection of 1000 U/kg of heparin was performed before taking out heart. Particularly, cannula(PE 240) was inserted in the trachea, and artificial respiration was tried upon the rat by using a rodent ventilator. Under that condition, aortic cannula was inserted in the aorta and heart was taken out under retrograde perfusion. The extracted heart was hung on Langendorff apparatus quickly and unnecessary tissues on heart were removed. Perfusion was induced under static pressure (85 mmHg) with 37° C. modified Krebs-Henseleit bicarbonate buffer (composition <mM/L>: 116 NaCl, 4.7 KCl, 1.1 MgSO4, 1.17 KH2PO4, 24.9 NaHCO3, 2.52 CaCl2, 8.32 Glucose, 2.0 Pyruvate) saturated with 95% O2/5% CO2. A metal cannula, to which a latex balloon filled with an ethanol-distilled water mixture (1:1 vol/vol) was linked, was inserted in left ventricle through pulmonary vein. Then, left ventricular pressure transmitted through the balloon was transduced by using pressure transducer, and amplified by using Plugsys bridge amplifier isovolumetrically. Then, the pressure was recorded in a recorder (Linearcorder mark 8 WR 3500). Thereafter, heart was stabilized for 15 minutes. Then, left ventricular end diastolic pressure (LVEDP) was given by 5 mmHg and such volume of the balloon was kept all through the experiments.
Baseline cardiac contractile function, heart rate (HR), and coronary flow (CF) were measured. Cardiac contractile function was calculated by […], yielding LVDP (left ventricular developed pressure). Double product RPP (rate-pressure product)(DP), another important parameter for indirectly assessing cardiac performance in Langendorff heart, whose cardiac output could not be measured ordinarily, was calculated by multiplying HR by LVDP. Throughout the experiment, total coronary blood flow was measured by the use of coronary flow probe (diameter: 1.0 mm) installed in aortic cannula with electromagnetic flowmeter. Temperature of heart was steadily maintained by immersing the heart at 37° C. in physiological saline solution to which 95% O2/5% CO2 was constantly supplied. After stabilization for 15 min, the hearts were pre-treated for 10 min with vehicle (0.04% DMSO) only or a compound of the present invention or the control material in the vehicle. Thereafter, cardiac contractile function, HR and CF were repeatedly measured. Global ischemia was induced by completely shutting off the perfusate for 30 min. Severity of ischemia was determined as the time to contracture (TTC, min) during global ischemia in which the first 5 mmHg increase in EDP was observed. Then, the hearts were reperfused and, 30 min later, contractile functions (LVDP, HR and CF) were repeatedly measured. After reperfusion was accomplished for 30 min, LDH (lactate dehydrogenase) was measured with a kit as a sensitive index for loss of cell viability.

[2] = test system: ischemic myocardial injury models prepared from white rats; assay: Antiischemic activity in the anesthetized rat ischemic myocardial injury model (coronary occlusion 45 min / reperfusion 90 min); type: in vivo; conditions: 0.3 mg/kg, intravenous (femoral vein), 30 min before occlusion
Experimental: 75 mg/kg of sodium pentobarbital was injected in abdominal cavity of white male rats (350-450 g, Laboratory Animal Division, Korea Research Institute of Chemical Technology) to anesthetize them. After performing tracheotomy, artificial respiration was induced by 10 ml/kg of stroke volume and 60/min. of heart rate. Cannula was inserted in each of vena fermoralis and aorta fermoralis, through which medicines were administered and blood pressure was measured. In the meantime, since body temperature in a ischemic myocardial injury model was very important factor, directly influencing a result, the temperature of a rat was always kept at 37° C. by using a probe for measuring body temperature inserted in rectum and homeothermic blanket control unit. Mean arterial blood pressure and heart rate (HR) of the rat were measured all through the experiments. Statham P23XL pressure transducer (Grass Ins., MA., USA) was used for measuring blood pressure and ECG/RATE Coupler (Hugo Sachs Electronic, Germany) was used for measuring HR. In addition, all the changes were recorded successively by graphtec linearcorder chart recorder (Graphtec Linearcorder WR 3310, Hugo Sachs Electronic).
According to the method of Selye H, left coronary aorta was occluded as follows. Left thoracotomy was induced. That is, the chest of a rat was a little opened. The right chest of the anesthetized rat was pressurized by the middle finger of left hand, so that the heart was pushed out. The heart was fixed gently by the thumb and the index finger of the left hand. A stitch was carefully put on a part including left anterior descending coronary artery by a suture needle with operating thread (5-0 silk ligature), and the heart was quickly positioned again in thoracic cavity. Then, both ends of operating thread were exposed outside. Both ends of operating thread were passed through PE tube (PE100, 2.5 cm) and left for 20 minutes for stabilization. A vehicle or a medicine was administered through the cannula inserted in femoral vein, which was left for 30 minutes in order for the medicine to work thoroughly. BMS-180448 was used for a control group and the dosage of each test medicine and a control medicine was 0.3 mg/kg each. […]
The coronary artery was reoccluded according to the above method and 2 ml of 1% Evans blue solution was administered by intravenous injection. […] The surface of each slice was inputted in a computer by using Hi-scope, a compact micro vision system, and Image pro plus program, from which both normal blood flow tissue area stained by blue and non-stained area on each slice were measured. The ratio of non-stained area to the gross area of each slice was calculated, by which the weight of each slice was multiplied to calculate AAR (area at risk) of each slice. […]

[3] = during 30 min global ischemia, first 5 mmHg increase in EDP

SMILES	TTC (time to induce contraction / time to contracture) [1] [min]	LDH (concentration of lactate dehydogenase) [1] [unit/g]	EDP (left ventricular end diastolic pressure) [1] [mmHg]	LVDP × HR (left ventricular developed pressure × heart rate) [1] [%]	TTC (time to induce contraction / time to contracture) [1, 3] [min]	IZ/AAR(%) myocardial infarction size to area at risk [2] [%]
COC(OC)[C@]1(C)Oc2ccc([N+](=O)[O-])cc2[C@H](n2c(=S)oc3cc([N+](=O)[O-])ccc32)[C@H]1O [Example 9, (2R,3R,4S)-6-nitro-3,4-dihydro-3-hydroxy-2-dimethoxymethyl-2-methyl-4-(6-nitro-2-thioxobenzoxazol-3-yl)-2H-1-benzopyran]	23.5	30.1	27.0	61.1	–	–
CC1(C)Oc2ccc(C#N)cc2[C@@H](NC(=NC#N)Nc2ccc(Cl)cc2)[C@@H]1O [BMS-180448, reference compound]	–	17.2	16.5	67.6	27.8	39.1
COC(OC)[C@]1(C)Oc2ccc(NC(=O)C(F)(F)F)cc2[C@H](n2c(=S)oc3ccccc32)[C@H]1O [Example 36, (2R,3R,4S)-6-trifluoroacetylamino-3,4-dihydro-3-hydroxy-2-dimethoxymethyl-2-methyl-4-(2-thioxobenzoxazol-3-yl)-2H-1-benzopyran]	–	–	27.3	48.4	24.9	–
COC(OC)[C@@]1(C)Oc2ccc([N+](=O)[O-])cc2[C@H](n2c(=S)oc3ccccc32)[C@H]1O [Example 3, (2S,3R,4S)-6-nitro-3,4-dihydro-3-hydroxy-2-dimethoxymethyl-2-methyl-4-(2-thioxobenzoxazol-3-yl)-2H-1-benzopyran]	–	12.6	15.3	66.8	26.6	–
COC(OC)[C@]1(C)Oc2ccc([N+](=O)[O-])cc2[C@@H](n2c(=S)oc3ccccc32)[C@@H]1O [Example 2, (2R,3S,4R)-6-nitro-3,4-dihydro-3-hydroxy-2-dimethoxymethyl-2-methyl-4-(2-thioxobenzoxazol-3-yl)-2H-1-benzopyran]	–	17.9	29.3	57.6	24.4	–
COC(OC)[C@]1(C)Oc2ccc([N+](=O)[O-])cc2[C@H](n2c(=S)oc3cc(C)ccc32)[C@H]1O [Example 5, (2R,3R,4S)-6-nitro-3,4-dihydro-3-hydroxy-2-dimethoxymethyl-2-methyl-4-(6-methyl-2-thioxobenzoxazol-3-yl)-2H-1-benzopyran]	–	20.2	21.0	47.4	29.0	–
COC(OC)[C@]1(C)Oc2ccc([N+](=O)[O-])cc2[C@H](n2c(=S)oc3ccc(Cl)cc32)[C@H]1O [Example 7, (2R,3R,4S)-6-nitro-3,4-dihydro-3-hydroxy-2-dimethoxymethyl-2-methyl-4-(5-chloro-2-thioxobenzoxazol-3-yl)-2H-1-benzopyran]	–	21.1	23.3	59.4	25.6	–
COC(OC)[C@]1(C)Oc2ccc(N)cc2[C@@H](n2c(=S)oc3ccccc32)[C@@H]1O [Example 20, (2R,3S,4R)-6-amino-3,4-dihydro-3-hydroxy-2-dimethoxymethyl-2-methyl-4-(2-thioxobenzoxazol-3-yl)-2H-1-benzopyran]	–	3.9	43.3	42.0	21.3	–
COC(OC)[C@]1(C)Oc2ccc([N+](=O)[O-])cc2[C@H](n2c(=S)oc3cccc(C)c32)[C@H]1O [Example 6, (2R,3R,4S)-6-nitro-3,4-dihydro-3-hydroxy-2-dimethoxymethyl-2-methyl-4-(4-methyl-2-thioxobenzoxazol-3-yl)-2H-1-benzopyran]	–	9.6	6.3	74.3	26.7	42.5
COc1ccc2oc(=S)n([C@H]3c4cc([N+](=O)[O-])ccc4O[C@@](C)(C(OC)OC)[C@@H]3O)c2c1 [Example 10, (2R,3R,4S)-6-nitro-3,4-dihydro-3-hydroxy-2-dimethoxymethyl-2-methyl-4-(5-methoxy-2-thioxobenzoxazol-3-yl)-2H-1-benzopyran]	–	17.3	36.7	54.2	24.4	46.6
COC(OC)[C@]1(C)Oc2ccc([N+](=O)[O-])cc2[C@H](n2c(=S)oc3ccc(C(F)(F)F)cc32)[C@H]1O [Example 16, (2R,3R,4S)-6-nitro-3,4-dihydro-3-hydroxy-2-dimethoxymethyl-2-methyl-4-(5-trifluoromethyl-2-thioxobenzoxazol-3-yl)-2H-1-benzopyran]	–	–	13.3	79.3	26.5	–
